# Laboratory results published in patent US20250352500A1, “USE OF PHENOLIC ACIDS DERIVATIVES IN TREATING ISCHEMIC STROKE” (LANZHOU UNIVERSITY, priority 2022, published 2025).
# Tests used:
# Format in all cases: in vivo, male C57/BL mice
# MCAO model mice [1] = test: Zea-Longa neurological function score in MCAO model mice
# Description: (§1) Male C57/BL mice weighing 23±1 g were randomly divided into sham operation group (SHAM), model group (MCAO) and drug administration groups (50 mg/kg, 100 mg/kg, 200 mg/kg), with 6 mice in each group. Mice in the SHAM group underwent vascular isolation, but no […] was administered, and no treatment was given before or after surgery. The model group mice were constructed with ischemic MCAO models, and no treatment was given before and after surgery. The drug administration group was treated with compound 2 on the basis of the model group. Mice with a neurological score of 0 after reperfusion and those that died before 72 hours post-surgery were excluded. The drugs were administered through the tail vein at 0, 1, and 2 days after reperfusion. The SHAM group and MCAO group were given equal volumes of saline.
# The neurological function score reflects the neurological injury status of MCAO model mice. After 24 hours of modeling, the neurological function score was performed (refer to the Zea-Longa scoring screening method). Mice with scores of 1-3 were successfully modeled, and those with scores of 0 and 4 were excluded.
# In this experiment, the Zea-Longa scoring method was used to score the sham hand group (SHAM), model group (MCAO), compound 2 (50 mg/kg) group, compound 2 (100 mg/kg) group, and compound 2 (200 mg/kg) group. The main scoring time points were before surgery, day 1, day 2, and day 3.
# MCAO model mice [2] = test: Cerebral infarction volume by TTC staining in MCAO model mice; details: for Cerebral infarction volume reduced compared with the model group: mean±SEM
# Description: as §1
# The cerebral infarction volumes of the sham-hand group (SHAM), model group (MCAO), compound 2 (50 mg/kg) group, compound 2 (100 mg/kg) group, and compound 2 (200 mg/kg) group in Example 2 were detected by TTC staining. […] The cerebral infarction volumes of mice in the different concentration groups were different.
# MCAO model mice [3] = test: Modified neurological severity score (mNSS, 14-point scale)
# Description: (§2) Grouping and administration method: Male C57/BL mice weighing 23±1 g were randomly divided into sham operation group (SHAM), model group (MCAO), compound 2 group (100 mg/kg), and compound 1 group (50 mg/kg), with 10 mice in each group. Mice in the SHAM group underwent vascular isolation, but no […] was administered, and no treatment was given before or after surgery. The model group mice were constructed with MCAO models and were not treated before and after surgery. The treatment group was treated with compound 2 or compound 1 on the basis of the model group. Mice with a neurological score of 0 after reperfusion and those that died before 72 hours post-surgery were excluded. The administration time for animal behavior tests was seven times at 0 h, 1 day, 2 days, 3 days, 4 days, 5 days, and 6 days after reperfusion, while the administration time for other experiments was three times at 0 h, 1 day, and 2 days after reperfusion. The drug was administered through the tail vein, and the sham operation group and model group were given equal amounts of saline.
# In addition, the neurological deficit score (mNSS) method shown in the table above was used to score the neurological function of each group of mice on a 14-point scale. Neurobehavioral scores were assessed in mice of the SHAM group, MCAO group, Compound 2 group, and Compound 1 group on day 1, 3, 5, and 7 post-surgery. […]
# MCAO model mice [4] = test: Survival curve after ischemia-reperfusion; details: 100 mg/kg tail vein
# Description: as §2
# At the same time, the weight change and survival rate of mice after ischemia-reperfusion were analyzed.
# IL-1β = test: RT-qPCR of IL-1β mRNA in brain tissue; details: 72 h, three days of administration, compound 2 100 mg/kg, P<0.01
# Description: as §2, with “The administration time for animal behavior tests was seven times at 0 h, 1 day, 2 days, 3 days, 4 days, 5 days, and 6 days after reperfusion, while the administration time for other experiments was three times at 0 h, 1 day, and 2 days after reperfusion. The drug was administered through the tail vein, and the sham operation group and model group were given equal amounts of saline.” left out
# To investigate the effect of compounds on the expression of inflammatory factors after ischemia-reperfusion, this study used immunofluorescence experiments to observe the expression of TNF-α, IL-1β, IL-6, iNOS, and COX2 proteins in brain tissue. […] The concentrations of TNF-α, IL-1β, and IL-6 in brain homogenate were detected by enzyme-linked immunosorbent assay (ELISA), and the expression level of TNF-α protein in brain tissue was detected by Western blot.
# After 72 hours of ischemia-reperfusion, the mRNA expression levels of TNF-α, IL-1β, IL-6, iNOS, and COX2 in brain tissue were detected and analyzed by RT-qPCR. […]
smiles,measurement,setting,value
O=C(O)c1cc(OP(=O)(O)O)ccc1OP(=O)(O)O [compound 2],Zea-Longa neurological score compared with the model group,"MCAO model mice [1]; 24 hours of reperfusion, 50, 100, 200 mg/kg via tail vein",no significant difference
same,Zea-Longa neurological score compared with the model group,"MCAO model mice [1]; after 48 hours, 100 mg/kg via tail vein, P<0.001",most significant decrease
same,Zea-Longa neurological score compared with the model group,"MCAO model mice [1]; after 48 hours, three concentrations (50, 100, 200 mg/kg) via tail vein",decreased significantly
same,Zea-Longa neurological score compared with the model group,"MCAO model mice [1]; after 72 hours of reperfusion, 100 mg/kg via tail vein, P<0.001",significantly decreased
same,Cerebral infarction volume reduced compared with the model group,"MCAO model mice [2]; 100 mg/kg via tail vein at 0, 1, 2 days after reperfusion, P<0.001",27.17±5.18%
same,Cerebral infarction volume smaller at 100 mg/kg compared with 50 mg/kg,"MCAO model mice [2]; 100 mg/kg vs 50 mg/kg of compound 2, mean±SEM, P<0.05",26.22±4.68%
same,Cerebral infarction volume reduced compared with the model group,"MCAO model mice [2]; 200 mg/kg via tail vein at 0, 1, 2 days after reperfusion, P<0.05",16.19±3.56%
same,Neurological function (mNSS 14-point scale) compared with the compound 1 group,MCAO model mice [3]; compound 2 100 mg/kg vs compound 1 50 mg/kg,significantly improved
same,Neurological function (mNSS 14-point scale) compared with MCAO group,"MCAO model mice [3]; day 1 to day 7 of reperfusion, 100 mg/kg tail vein",improved significantly
same,Mortality rate (survival curve) compared with MCAO group,MCAO model mice [4],significantly improved the mortality rate
same,IL-1β mRNA expression compared with MCAO group,IL-1β,significantly reduced
